Laboratory results reported in patent publication US6743413B1, “Suspension aerosol formulations” (3M Company, priority 1991, dated 2004).
Values joined by “and” are separate entries in the source; they are usually repeats but may differ in a detail not shown here. Equal entries are not always repeated.

Legend:
Format in all cases: physicochemical
[1] = Visual assessment of suspension formulations by time lapse photography 10 and 30 seconds after agitation; set-up: key: + = visually acceptable formulation; − = visually unacceptable formulation; ? = border line acceptable formulation; conditions: 10 and 30 seconds post agitation
[2] = Suspension aerosol particle size analysis (Malvern Mastersizer, laser diffraction); conditions: Example 7: 0.02 percent by weight in HFC 134a
Procedure: The particle size distribution of drug in the aerosol suspension is assayed by Malvern Mastersizer™ Particle Size Analyser using a suspending medium of 0.01 percent sorbitan trioleate in heptane.
Using a primed connector, shots are fired via an injection adapter into the Malvern sample cell containing the suspending medium. When a suitable level of obscuration (in the range 8.5-9) is achieved, analysis by laser diffraction is then performed.
The results below show the percentage by weight of particles having particle size below 10.7 μm, below 5.07 μm, and below 1.95 μm. The “Initial” entries represent the average of three independent determinations, and the “25° C.”, “CYC”, and “HHC” entries represent a single determination after one month under the indicated storage conditions.

[3] = Visual assessment of suspension formulations by time lapse photography 10 and 30 seconds after agitation; set-up: key: + = visually acceptable formulation; − = visually unacceptable formulation; ? = border line acceptable formulation
Procedure: (§1) For each of the micronized drug substances A-G set forth below, formulations were prepared at drug concentrations of 0.017 percent, 0.039 percent, 0.083 percent, 0.41 percent, and 1.6 percent by weight based on the total weight of the formulation (corresponding to 0.20 mg/mL, 0.50 mg/mL, 1.0 mg/mL, 5.0 mg/Ml, and 20 mg/mL, respectively). The formulations were prepared by dispersing micronized drug in HFC 134a in a sealed 15 mL clear PET vial using ultrasonic energy.
Using time lapse photography 10 and 30 seconds after agitation the formulations were assessed as follows: […]
The formulations were photographed using time lapse photography at 10 and 30 seconds post agitation and were assessed as follows: […]

[4] = Twin stage impinger deposition of emitted dose; conditions: Example 7: 0.02 percent by weight in HFC 134a
Description: Glass impinger apparatus A (BP198 Appendix XV11C) is used. To determine the deposition of the emitted dose, the apparatus is assembled as described. The oral adapter is attached to the throatpiece of the apparatus, and a suitable pump is connected to the outlet of the apparatus. The air flow through the apparatus is 60 ±5 liters per minute measured at the inlet of the throat. […] Ten shots are then fired via the adapter into the apparatus from the canister.
The apparatus is then dismantled and each stage washed with the appropriate amount of methanol. The washings are assayed by HPLC to give the content of the drug found at each stage and also the material balance.

[5] = Visual observation of suspension aerosol formulations (dispersion, flocculation, settling, creaming, suitability for metered dose inhaler); conditions: Example 3: 1:1 (W/W) HFC 134a/HFC 227 versus corresponding formulations in HFC 134a alone
Procedure: as §1
For each propellant mix the range of drug concentrations used in Example 1 was used.
BDP formulations were prepared at 0.070 percent by weight (1.0 mg/mL) in HFC 227 and at 0.38 percent by weight (5.0 mg/mL) in a 1:1 mixture of HFC 227 and HFC 134a.
Formulations of salmeterol free base at 0.02 percent by weight and 0.05 percent by weight were prepared in HFC 134a and in HFC 227 by placing the drug and 5 mL of glass beads into a 15 mL glass vial, crimping on a continuous valve, and adding the appropriate amount of propellant. The formulations were shaken on a paint shaker for 10 min in order to disperse the drug.
The vial was then shaken on a paint shaker, chilled, and the contents transferred to 10 mL vials fitted with the metered dose valve. […] Valve delivery was measured through the life of the formulations.

[6] = 1 Month CYC (cycled between 15° C. and 37° C.)
[7] = 1 Month HHC (approximately 40° C. and 85 percent relative humidity)
[8] = Initial (average of three determinations)

For COc1ccc(C[C@@H](C)NC[C@H](O)c2ccc(O)c(NC=O)c2)cc1.COc1ccc(C[C@@H](C)NC[C@H](O)c2ccc(O)c(NC=O)c2)cc1.O=C(O)/C=C/C(=O)O [Formoterol fumarate], the “Assessment (visual)” value ([1]; Example 3: drug concentration 0.015 % in 1:1 HFC 134a/HFC 227) was “+”, the “Assessment (visual)” value ([1]; Example 3: drug concentration 0.038 % in 1:1 HFC 134a/HFC 227) was “+” and the “Assessment (visual)” value ([1]; Example 3: drug concentration 0.076 % in 1:1 HFC 134a/HFC 227) was “?”. The “Assessment (visual)” value ([1]; Example 3: drug concentration 0.38 % in 1:1 HFC 134a/HFC 227) was “?”, the “Assessment (visual)” value ([1]; Example 3: drug concentration 1.5 % in 1:1 HFC 134a/HFC 227) was “+” and the “particles with particle size <1.95 μm” value [2, 6] was 36.1 Percent by weight and 32.5 Percent by weight. The “particles with particle size <5.07 μm” value [2, 6] was 92.9 Percent by weight and 92.5 Percent by weight, the “particles with particle size <10.7 μm” value [2, 6] was 99.8 Percent by weight and the “particles with particle size <1.95 μm” value [2, 7] was 33.5 Percent by weight and 34.9 Percent by weight. For the same compound, the “particles with particle size <5.07 μm” value [2, 7] was 93.1 Percent by weight and 92.4 Percent by weight, the “particles with particle size <10.7 μm” value [2, 7] was 99.8 Percent by weight and 99.7 Percent by weight and the “particles with particle size <1.95 μm” value ([2]; 1 Month stored at 25° C.) was 36.3 Percent by weight and 31.7 Percent by weight. The “particles with particle size <5.07 μm” value ([2]; 1 Month stored at 25° C.) was 93.6 Percent by weight and 94.8 Percent by weight, the “particles with particle size <10.7 μm” value ([2]; 1 Month stored at 25° C.) was 99.8 Percent by weight and 99.9 Percent by weight and the “particles with particle size <1.95 μm” value [2, 8] was 32.2 Percent by weight and 30.5 Percent by weight. The “particles with particle size <5.07 μm” value [2, 8] was 93.4 Percent by weight and 92.6 Percent by weight, the “particles with particle size <10.7 μm” value [2, 8] was 99.6 Percent by weight and 98.0 Percent by weight and the “visual assessment of formulation” value ([3]; Example 1: drug concentration 0.017 % in HFC 134a alone) was “+”. For the same compound, the “visual assessment of formulation” value ([3]; Example 1: drug concentration 0.039 % in HFC 134a alone) was “?”, the “visual assessment of formulation” value ([3]; Example 1: drug concentration 0.083 % in HFC 134a alone) was “?” and the “visual assessment of formulation” value ([3]; Example 1: drug concentration 0.41 % in HFC 134a alone) was “−”. The “visual assessment of formulation” value ([3]; Example 1: drug concentration 1.63 % in HFC 134a alone) was “+”, the “% Stem/Adapter” value ([4]; 1 Month (25° C.)) was 52.0% and 52.5% and the “%Stage 1” value ([4]; 1 Month (25° C.)) was 16.7% and 23.9%. The “%Stage 2” value ([4]; 1 Month (25° C.)) was 31.3% and 23.6%, the “% Stem/Adapter” value ([4]; 1 Month (CYC)) was 16.8% and 24.6% and the “%Stage 1” value ([4]; 1 Month (CYC)) was 53.6% and 47.6%. For the same compound, the “%Stage 2” value ([4]; 1 Month (CYC)) was 29.7% and 27.8%, the “%Stage 1” value ([4]; 1 Month (HHC)) was 37.0% and 60.4% and the “%Stage 2” value ([4]; 1 Month (HHC)) was 29.0% and 24.3%. The “% Stem/Adapter” value ([4]; Initial) was 26.0% and 24.7% and 28.5%, the “%Stage 1” value ([4]; Initial) was 37.5% and 35.3% and 36.7% and the “%Stage 2” value ([4]; Initial) was 36.5% and 40.0% and 34.8%. For the same compound, the “flocculation and sedimentation rate” value [5] was “reduced flocculation and a slower sedimentation rate”.
